Laboratory results: PMC11643494, “Structure–Activity Relationship Studies in a Series of 2-Aryloxy-N-(pyrimidin-5-yl)acetamide Inhibitors of SLACK Potassium Channels” (Molecules, 2024)

Key:
Format in all cases: cell-based
KV2.1 = biological target: T1, KV2.1 (Homo sapiens, UniProt Q14721); assay: Tl+-flux assay in HEK-293 cells, KV2.1; settings: HEK293; 10 µM test compound; relative to control guangxitoxin 1E; read-out: Percent Inhibition ± SEM, KV2.1
T1 construct: expressed in transfected cells; host or cells: HEK293
T1 sequence (Q14721 whole entry): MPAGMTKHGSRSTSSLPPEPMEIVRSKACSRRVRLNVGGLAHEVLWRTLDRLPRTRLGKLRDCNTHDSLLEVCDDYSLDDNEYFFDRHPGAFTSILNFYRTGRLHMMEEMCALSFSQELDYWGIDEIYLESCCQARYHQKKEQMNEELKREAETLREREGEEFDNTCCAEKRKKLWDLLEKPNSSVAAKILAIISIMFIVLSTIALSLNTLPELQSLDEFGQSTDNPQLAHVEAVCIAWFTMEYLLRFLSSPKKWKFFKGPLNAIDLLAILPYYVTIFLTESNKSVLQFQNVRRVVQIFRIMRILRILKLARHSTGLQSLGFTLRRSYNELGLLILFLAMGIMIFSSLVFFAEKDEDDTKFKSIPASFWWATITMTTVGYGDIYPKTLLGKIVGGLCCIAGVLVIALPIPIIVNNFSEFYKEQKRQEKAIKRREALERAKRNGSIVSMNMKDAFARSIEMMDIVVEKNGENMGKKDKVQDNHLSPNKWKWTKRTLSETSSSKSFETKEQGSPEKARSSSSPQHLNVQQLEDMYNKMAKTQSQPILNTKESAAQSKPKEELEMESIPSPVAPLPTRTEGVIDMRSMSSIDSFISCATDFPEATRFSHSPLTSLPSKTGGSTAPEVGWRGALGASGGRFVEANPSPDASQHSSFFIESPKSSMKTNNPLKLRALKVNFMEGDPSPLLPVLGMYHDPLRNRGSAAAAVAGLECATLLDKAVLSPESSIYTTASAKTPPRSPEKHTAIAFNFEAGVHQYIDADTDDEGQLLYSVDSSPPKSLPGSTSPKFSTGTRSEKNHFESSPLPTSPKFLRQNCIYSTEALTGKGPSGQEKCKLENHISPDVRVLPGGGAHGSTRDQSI
Excerpt: (§1) Having executed our plan to prepare analogs across the identified regions of the chemotype (Figure 2), we identified two analogs for further profiling and evaluation. […] Desiring to add a second compound with some measure of structural differences, we also chose another submicromolar SLACK inhibitor 66 (VU0936154). Whereas 40 contains an ether linker and a halogenated phenyl group in the eastern region, […] contains an N-methyl linker and a phenyl group with a more polar cyano substituent. We first screened these analogs at 10 µM versus our in-house panel of ion channel targets using Tl^+-flux assays in HEK-293 cells expressing the human target of interest. […] Included in this set are Slo family members SLICK and two isoforms of Maxi-K, as well as several different K^+, Na^+, and Ca^2+ channels (Table 6). […] Of note was the excellent selectivity versus the broader panel of targets for both compounds, including versus the hERG channel.
(§2) Stably transfected monoclonal HEK293 cell lines expressing SLICK, Maxi-K α1/β3, Maxi-K α1/β4, CaV3.2, GIRK 1/2, KV2.1, KV7.2, NaV1.7, and TASK-1 were generated as previously described. […]
(§3) The Tl^+ flux assays were conducted as previously described, with modifications optimized for individual cell lines as described below. […] Cell plates were then loaded onto a Panoptic kinetic imaging plate reader (WaveFront Biosciences, Franklin, TN, USA). […]

KV7.2 = biological target: T2, KV7.2 (Homo sapiens, UniProt O43526); assay: Tl+-flux assay in HEK-293 cells, KV7.2; settings: HEK293; 10 µM test compound; relative to control XE991; read-out: Percent Inhibition ± SEM, KV7.2
T2 construct: expressed in transfected cells; host or cells: HEK293
Excerpt: as §1, §2, §3

GIRK 1/2 = biological target: T3, GIRK 1/2 (Homo sapiens, UniProt P48051+P48549); assay: Tl+-flux assay in HEK-293 cells, GIRK 1/2; settings: HEK293; 10 µM test compound; relative to control SCH23390; read-out: Percent Inhibition ± SEM, GIRK 1/2
T3 construct: expressed in transfected cells; host or cells: HEK293
T3 sequence (P48549 whole entry): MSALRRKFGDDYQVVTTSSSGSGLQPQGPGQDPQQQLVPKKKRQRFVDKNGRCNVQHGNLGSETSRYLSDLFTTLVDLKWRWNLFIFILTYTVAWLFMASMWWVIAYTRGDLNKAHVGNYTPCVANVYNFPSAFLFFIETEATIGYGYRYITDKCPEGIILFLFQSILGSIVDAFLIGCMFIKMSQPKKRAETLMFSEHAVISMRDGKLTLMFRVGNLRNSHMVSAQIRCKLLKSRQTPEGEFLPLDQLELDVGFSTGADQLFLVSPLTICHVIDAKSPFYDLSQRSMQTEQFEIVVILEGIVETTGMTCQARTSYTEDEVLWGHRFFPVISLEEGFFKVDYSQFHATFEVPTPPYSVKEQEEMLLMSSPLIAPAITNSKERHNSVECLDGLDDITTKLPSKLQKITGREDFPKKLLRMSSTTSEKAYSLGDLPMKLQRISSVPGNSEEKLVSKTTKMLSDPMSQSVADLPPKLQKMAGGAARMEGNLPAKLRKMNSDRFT
T3 sequence (P48051 whole entry): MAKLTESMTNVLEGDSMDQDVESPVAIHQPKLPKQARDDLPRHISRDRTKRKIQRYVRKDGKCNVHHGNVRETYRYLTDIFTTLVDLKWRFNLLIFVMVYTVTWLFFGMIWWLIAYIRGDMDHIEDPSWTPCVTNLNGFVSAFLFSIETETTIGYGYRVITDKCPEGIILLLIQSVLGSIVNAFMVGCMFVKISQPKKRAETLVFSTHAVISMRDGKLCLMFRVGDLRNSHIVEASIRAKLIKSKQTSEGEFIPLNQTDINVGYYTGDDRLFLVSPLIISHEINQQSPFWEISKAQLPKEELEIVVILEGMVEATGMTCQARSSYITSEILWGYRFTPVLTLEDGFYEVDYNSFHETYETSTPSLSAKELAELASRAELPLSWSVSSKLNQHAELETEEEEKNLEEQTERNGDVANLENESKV
Excerpt: as §1, §2, §3

Maxi-K α1/β4 = biological target: T4, Maxi-K α1/β4 (Homo sapiens, UniProt Q12791); assay: Tl+-flux assay in HEK-293 cells, Maxi-K α1/β4; settings: HEK293; 10 µM test compound; relative to control paxilline; read-out: Percent Inhibition ± SEM, Maxi-K α1/β4
T4 construct: expressed in transfected cells; host or cells: HEK293
T4 sequence (Q12791 whole entry): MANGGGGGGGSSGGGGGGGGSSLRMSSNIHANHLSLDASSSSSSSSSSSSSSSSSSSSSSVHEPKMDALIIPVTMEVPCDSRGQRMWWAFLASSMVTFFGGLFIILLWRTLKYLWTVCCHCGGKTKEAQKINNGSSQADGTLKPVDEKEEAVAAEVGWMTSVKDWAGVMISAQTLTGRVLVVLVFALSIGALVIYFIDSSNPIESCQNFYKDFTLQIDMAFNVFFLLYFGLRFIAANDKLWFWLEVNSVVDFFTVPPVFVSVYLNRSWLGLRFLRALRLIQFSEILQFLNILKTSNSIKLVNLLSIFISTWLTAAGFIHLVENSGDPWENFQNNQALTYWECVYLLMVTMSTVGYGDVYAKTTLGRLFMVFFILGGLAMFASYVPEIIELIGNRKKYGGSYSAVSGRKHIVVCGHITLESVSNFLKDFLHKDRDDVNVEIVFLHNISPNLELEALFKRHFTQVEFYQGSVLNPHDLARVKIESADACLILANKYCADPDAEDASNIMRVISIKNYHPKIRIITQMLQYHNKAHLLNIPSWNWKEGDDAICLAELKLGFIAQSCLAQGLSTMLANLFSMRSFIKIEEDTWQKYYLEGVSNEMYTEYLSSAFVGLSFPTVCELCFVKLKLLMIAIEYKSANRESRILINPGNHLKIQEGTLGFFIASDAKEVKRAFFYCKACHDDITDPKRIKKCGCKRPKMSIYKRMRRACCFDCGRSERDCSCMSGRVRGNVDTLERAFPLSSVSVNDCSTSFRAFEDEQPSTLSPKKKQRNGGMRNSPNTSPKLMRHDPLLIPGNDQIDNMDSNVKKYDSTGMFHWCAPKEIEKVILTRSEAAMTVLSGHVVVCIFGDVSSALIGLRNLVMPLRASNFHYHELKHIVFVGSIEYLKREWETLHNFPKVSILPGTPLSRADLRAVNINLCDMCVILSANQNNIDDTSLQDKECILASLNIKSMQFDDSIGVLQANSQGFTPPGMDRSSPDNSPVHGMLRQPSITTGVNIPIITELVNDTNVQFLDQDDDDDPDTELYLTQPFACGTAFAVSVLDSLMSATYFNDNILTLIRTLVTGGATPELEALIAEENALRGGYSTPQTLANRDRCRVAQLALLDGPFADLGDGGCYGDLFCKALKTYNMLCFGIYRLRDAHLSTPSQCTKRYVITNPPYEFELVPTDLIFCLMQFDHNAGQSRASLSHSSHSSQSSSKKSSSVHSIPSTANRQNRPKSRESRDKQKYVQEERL
T4 sequence (Q86W47 whole entry partner): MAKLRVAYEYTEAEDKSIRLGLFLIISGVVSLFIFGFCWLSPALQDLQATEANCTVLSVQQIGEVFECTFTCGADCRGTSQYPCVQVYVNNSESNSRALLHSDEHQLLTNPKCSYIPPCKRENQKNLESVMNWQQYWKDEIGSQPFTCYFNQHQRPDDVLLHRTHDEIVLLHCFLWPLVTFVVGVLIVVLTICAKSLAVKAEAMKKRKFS
Excerpt: as §1, §2, §3

CC(C)(Oc1ccc(Cl)cc1)C(=O)Nc1cnc(Oc2c(F)cccc2F)nc1 [Analog 40]
inhibition at 10 µM (KV2.1): 13 ± 5% | inhibition at 10 µM (KV7.2): 1.3 ± 1% | inhibition at 10 µM (GIRK 1/2): 6.8 ± 3.3% | inhibition at 10 µM (Maxi-K α1/β4): 10 ± 7.4%

CN(c1ccc(C#N)cc1)c1ncc(NC(=O)C(C)(C)Oc2ccc(Cl)cc2)cn1 [Analog 66]
inhibition at 10 µM (KV2.1): 10 ± 1.6% | inhibition at 10 µM (KV7.2): 1.6 ± 0.94% | inhibition at 10 µM (GIRK 1/2): 6.4 ± 1.5% | inhibition at 10 µM (Maxi-K α1/β4): 22 ± 2.5%
